Test results from patent publication US11472774B2, “Anti-cancer compounds” (The University of Sydney, priority 2018, dated 2022).

Target: T1, porcine brain tubulin (Sus scrofa, UniProt P02550+P02554)
T1 construct: purchased Cytoskeleton; host or cells: porcine brain tissue
Experiment: Fluorescence-based tubulin polymerization assay
Assay type: biochemical
Conditions: compared to control (DMSO); 37° C.; FIG. 1 and FIG. 2
Protocol: Fluorescence-based tubulin polymerization assay was conducted in a final volume of 55 μL using the Tubulin Polymerization Assay kit (Cytoskeleton, Colo., USA) as per manufacturer's instructions. Briefly, porcine brain tubulin was incubated with test compounds at 37° C. and fluorescence was measured using with Tecan M200 PRO+ microplate reader (Tecan, Switzerland) at 355 nm excitation and 460 nm emission.

T1 sequence (P02550 whole entry): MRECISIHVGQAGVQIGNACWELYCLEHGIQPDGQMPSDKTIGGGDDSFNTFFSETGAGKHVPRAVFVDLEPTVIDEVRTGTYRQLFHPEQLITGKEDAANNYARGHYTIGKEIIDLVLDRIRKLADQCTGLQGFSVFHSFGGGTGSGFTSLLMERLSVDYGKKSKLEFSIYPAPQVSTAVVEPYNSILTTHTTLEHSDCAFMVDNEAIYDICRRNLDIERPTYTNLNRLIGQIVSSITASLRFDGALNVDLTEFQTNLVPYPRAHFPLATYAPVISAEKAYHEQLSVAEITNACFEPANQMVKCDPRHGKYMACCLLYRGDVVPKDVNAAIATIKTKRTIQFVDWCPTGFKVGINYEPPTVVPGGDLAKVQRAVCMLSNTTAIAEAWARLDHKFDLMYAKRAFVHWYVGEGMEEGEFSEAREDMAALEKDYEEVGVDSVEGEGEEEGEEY
T1 sequence (P02554 whole entry): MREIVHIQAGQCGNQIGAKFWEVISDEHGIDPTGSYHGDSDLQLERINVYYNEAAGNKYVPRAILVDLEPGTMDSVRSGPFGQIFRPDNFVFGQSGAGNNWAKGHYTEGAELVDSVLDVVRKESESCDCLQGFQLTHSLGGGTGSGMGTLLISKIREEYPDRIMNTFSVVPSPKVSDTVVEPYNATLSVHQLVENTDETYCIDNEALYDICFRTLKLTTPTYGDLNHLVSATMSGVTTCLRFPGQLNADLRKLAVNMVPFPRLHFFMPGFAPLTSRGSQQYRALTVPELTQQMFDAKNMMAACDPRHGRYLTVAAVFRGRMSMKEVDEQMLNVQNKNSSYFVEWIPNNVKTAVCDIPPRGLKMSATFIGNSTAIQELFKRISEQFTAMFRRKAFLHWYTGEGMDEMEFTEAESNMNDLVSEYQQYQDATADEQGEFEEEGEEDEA

| Compound | effect on tubulin polymerization |
| --- | --- |
| CC[C@]1(O)C[C@@H]2CN(CCc3c([nH]c4ccccc34)[C@@](C(=O)OC)(c3cc4c(cc3OC)N(C)[C@H]3[C@@](O)(C(=O)OC)[C@H](OC(C)=O)[C@]5(CC)C=CCN6CC[C@]43[C@@H]65)C2)C1 [vinblastine] | inhibited tubulin polymerization |
| O=C(NCCCc1ccc(-c2ccccc2F)cc1)c1cccnc1 [WJA88, N-(3-(2′-Fluoro-[1,1′-Biphenyl]-4-yl)Propyl)Nicotinamide] | inhibited tubulin polymerization |
| CC(=O)O[C@H]1C(=O)[C@@]2(C)[C@H]([C@H](OC(=O)c3ccccc3)[C@]3(O)C[C@H](OC(=O)[C@H](O)[C@@H](NC(=O)c4ccccc4)c4ccccc4)C(C)=C1C3(C)C)[C@]1(OC(C)=O)CO[C@@H]1C[C@@H]2O [paclitaxel] | enhanced tubulin polymerization |
| O=C(CCCc1ccc(-c2ccccc2F)cc1)Nc1cccnc1 [WJA69b, 4-(2′-fluoro-[1,1′-biphenyl]-4-yl)-N-(pyridin-3-yl)butanamide] | inhibited tubulin polymerization |
